Test results taken from patent publication US11820745B2, “PKC-activating compounds for the treatment of neurodegenerative diseases” (Synaptogenix, Inc., priority 2008, dated 2023).

Key:
TACE = TACE assay in rat primary neurons; format: cell-based; details: primary neurons from rat hippocampus; FIGS. 9b, c
Description: TACE Assay. TACE was measured by incubating 5 μl cell homogenate, 3 μl buffer (50 mM Tris-HCl 7.4 plus 25 mM NaCl plus 4% glycerol), and 1 of 100 μM TACE substrate IV (Aβz-LAQAVRSSSR-DPa) (Calbiochem) for 20 min at 37° in 1.5-ml polypropylene centrifuge tubes (Jin et al., Anal Biochem. 2002; 302: 269-75). The reaction was stopped by cooling to 4° C. The samples were diluted to 1 ml and the fluorescence was rapidly measured (ex=320 nm, em=420 nm) in a Spex Fluorolog 2 spectrofluorometer.

PKC [1] = experiment: PKC activity time course in rat H19-7/IGF-IR hippocampal cells; format: cell-based
Description: (§1) Cell culture. Rat hippocampal H19-71GF-IR cells (ATCC, Manassas, Va.) were plated onto poly-L-lysine coated plates and grown at 35° C. in DMEM/10% FCS for several days until about 50% coverage was obtained. The cells were then induced to differentiate into a neuronal phenotype by replacing the medium with 5 ml N2 medium containing 10 ng/ml basic fibroblast growth factor at 39° C. and grown in T-75 flasks at 37° C. Human SH-SY5Y neuroblastoma cells (ATCC) were cultured in 45% F12K/45% MEM/10% FCS. Mouse N2A neuroblastoma cells were cultured in DMEM/10% FCS without glutamine. Rat hippocampal neurons from 18-day-old embryonic
(§2) Protein kinase C assay. Rat hippocampal cells were cultured and scraped in 0.2 ml homogenization buffer (20 triM Tris-HCl, pH 7.4, 50 mM NaF, 1 μg/ml leupeptin, and 0.1 mM PMSF) and homogenized by sonication in a Marsonix micro-probe sonicator (5 see, 10W). To measure PKC, 10 ul of cell homogenate or purified. PKC isozyme (purchased from Calbiochem) was incubated for 15 min at 37° C. in the presence of 10 μM histones, 4.89 mM CaCl2, 1.2 μg/μl phosphatidyl-L-serine, 0.18 μg/μl 1,2-dioctanoyl-sn-glycerol, 10 mM MgCl2, 20 mM HEPES (pH 7.4), 0.8 mM EDTA, 4 mM EGTA, 4% glycerol, 8 μg/ml aprotinin, 8 μg/ml leupeptin, and 2 mM benzamidine. 0.5 μCi [^γ-32P]ATP was added and ^32P-phosphoprotein formation was measured by adsorption onto phosphocellulose as described previously. Nelson and Alkon, J. Neurochemistry. 1995; 65: 2350-57. For measurements of activation by BR-101 (DCP-LA) and similar compounds, PKC activity was measured in the absence of diacylglycerol and phosphatidyl serine, as described by Kanno et al., and PKC δ, ε, η, and μ were measured in the absence of added EGTA and CaCl2, as described by Kanno et al., J. Lipid Res. 2006; 47: 1146-50. Low concentrations of Ca^2+ are used because high Ca^2+ interacts with the PKC phosphatidylserine binding site and prevents activation. For measurements of bryostatin activation, 1,2-diacylglycerol was omitted unless otherwise stated.

PKCγ = target: T1, PKCγ (Homo sapiens, UniProt P05129); experiment: Protein kinase C assay, purified PKC isozymes: PKCγ; format: biochemical; details: higher concentrations, 50-100 μM; data not shown
T1 construct: purchased Calbiochem
Description: as §2, with “Low concentrations of Ca^2+ are used because high Ca^2+ interacts with the PKC phosphatidylserine binding site and prevents activation. For measurements of bryostatin activation, 1,2-diacylglycerol was omitted unless otherwise stated.” left out
(§3) To determine their PKC isozyme specificity, the new compounds were preincubated with purified PKC for five minutes and the PKC activity was measured radiometrically.

PKCε = target: T2, PKCε (Homo sapiens, UniProt Q02156); details: Kanno et al.; cited from earlier work
T2 construct: purchased Calbiochem
T2 sequence (Q02156 1-737): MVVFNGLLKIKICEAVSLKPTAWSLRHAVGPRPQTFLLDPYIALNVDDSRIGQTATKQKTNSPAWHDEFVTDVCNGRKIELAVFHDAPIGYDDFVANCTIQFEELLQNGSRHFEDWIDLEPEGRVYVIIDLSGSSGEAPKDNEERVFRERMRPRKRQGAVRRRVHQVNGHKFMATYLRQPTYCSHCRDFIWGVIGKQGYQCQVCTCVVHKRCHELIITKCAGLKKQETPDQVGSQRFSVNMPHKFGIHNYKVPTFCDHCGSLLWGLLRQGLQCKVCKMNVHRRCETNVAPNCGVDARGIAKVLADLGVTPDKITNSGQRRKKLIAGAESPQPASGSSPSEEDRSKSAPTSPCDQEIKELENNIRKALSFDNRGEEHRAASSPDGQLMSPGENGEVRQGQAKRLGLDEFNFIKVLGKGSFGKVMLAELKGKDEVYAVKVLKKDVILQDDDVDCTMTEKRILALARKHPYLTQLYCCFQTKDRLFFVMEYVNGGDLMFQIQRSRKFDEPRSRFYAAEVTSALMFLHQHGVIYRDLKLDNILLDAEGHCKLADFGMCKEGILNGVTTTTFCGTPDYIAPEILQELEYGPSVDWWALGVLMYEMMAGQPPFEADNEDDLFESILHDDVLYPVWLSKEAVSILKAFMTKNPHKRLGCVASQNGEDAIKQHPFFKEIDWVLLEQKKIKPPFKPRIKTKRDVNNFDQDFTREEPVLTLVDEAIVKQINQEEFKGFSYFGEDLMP

PKC [2] = experiment: PKC activity time course in rat hippocampal primary neurons; format: cell-based; details: sustained activation only observed in primary neurons
Description: as §1
Sprague Dawley rat brains were plated on 12- or 96-well plates coated with poly-D-lysine (Sigma-Aldrich, St, Louis, Mo.) in B-27 neurobasal medium containing 0.5 mM glutamine and 25 uM glutamate (Invitrogen, Carlsbad, Calif.) and cultured for three days in the medium without glutamate. […]
Protein kinase C assay. […] 0.5 μCi [^γ-32P]ATP was added and ^32P-phosphoprotein formation was measured by adsorption onto phosphocellulose as described previously. […] For measurements of activation by BR-101 (DCP-LA) and similar compounds, PKC activity was measured in the absence of diacylglycerol and phosphatidyl serine, as described by Kanno et al., and PKC δ, ε, η, and μ were measured in the absence of added EGTA and CaCl2, as described by Kanno et al., J. Lipid Res. 2006; 47: 1146-50. […]

other PKC isoforms = experiment: Protein kinase C assay, purified PKC isozymes: other isoforms; format: biochemical; details: data not shown
Description: as §2, with “Low concentrations of Ca^2+ are used because high Ca^2+ interacts with the PKC phosphatidylserine binding site and prevents activation. For measurements of bryostatin activation, 1,2-diacylglycerol was omitted unless otherwise stated.” left out
as §3

Row | Compound | TACE activity (TACE) | downregulation of PKC (PKC [1]) | effect on PKCγ (PKCγ) | potency for PKCε over other PKC isozymes (PKCε) | duration of PKC elevation (PKC [2]) | effects on the other PKC isoforms (other PKC isoforms)
1 | CCC1CC1CC1CC1CC1CC1CC1CC1CC1CC1CC1CC1CCC(=O)OC (stereo not drawn) [BR-111, methyl-3-(2-((2-((2-((2-((2-((2-ethylcyclopropyl)methyl)cyclopropyl)methyl)cyclopropyl)methyl)-cyclopropyl)methyl)cyclopropyl)methyl)cyclopropyl)propanoate] | small increases |  |  |  |  | 
2 | CCCCCC1CC1CC1CC1CCCCCCCC(=O)O (stereo not drawn) [BR-101, 8-[2-(2-pentyl-cyclopropylmethyl)-cyclopropyl]-octanoic acid] |  | could not be measured | activated | greater than 7 fold | remained elevated for at least four hours | relatively small effects
